Laboratory results published in ChEMBL document CHEMBL4270566, “New aziridine-based inhibitors of cathepsin L-like cysteine proteases with selectivity for the Leishmania cysteine protease LmCPB2.8” (Eur J Med Chem, 2018).
Active and inactive are the calls of the source. The calls are words filed in the database; no cut-off is given here.

Assays:
Leishmania mexicana [1] = experiment: Inhibition of Leishmania mexicana cathepsin L-like protease CPB2.8 at 20 uM using Z-Phe-Arg-AMC as substrate by fluorometric assay relative to control
[2] = target: Cruzipain (Trypanosoma cruzi) (UniProt P25779); experiment: Inhibition of Trypanosoma cruzi cruzain at 20 uM using Z-Phe-Arg-AMC as substrate by fluorometric assay relative to control
Cathepsin B = Cathepsin B (Homo sapiens, UniProt P07858); experiment: Inhibition of human cathepsin-B at 20 uM using Z-Phe-Arg-AMC as substrate by fluorometric assay relative to control
[3] = target: T1, Falcipain 2 (Plasmodium falciparum) (UniProt Q9N6S8); experiment: Inhibition of Plasmodium falciparum falcipain 2 at 20 uM using Z-Phe-Arg-AMC as substrate by fluorometric assay relative to control
T1 sequence (whole entry): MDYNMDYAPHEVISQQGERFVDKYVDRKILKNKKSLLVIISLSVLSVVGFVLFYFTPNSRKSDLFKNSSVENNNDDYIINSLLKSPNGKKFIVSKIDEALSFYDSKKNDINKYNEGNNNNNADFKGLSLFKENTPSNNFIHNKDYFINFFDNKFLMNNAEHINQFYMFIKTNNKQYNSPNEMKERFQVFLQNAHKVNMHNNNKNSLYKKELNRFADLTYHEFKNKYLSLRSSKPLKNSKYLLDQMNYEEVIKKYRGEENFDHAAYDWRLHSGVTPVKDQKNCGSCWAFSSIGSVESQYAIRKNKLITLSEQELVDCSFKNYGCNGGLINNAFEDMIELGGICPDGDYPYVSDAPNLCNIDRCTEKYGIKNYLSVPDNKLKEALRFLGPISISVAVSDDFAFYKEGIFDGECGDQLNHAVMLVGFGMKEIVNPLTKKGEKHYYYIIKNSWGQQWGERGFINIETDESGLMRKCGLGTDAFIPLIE

Procathepsin L [4] = target: T2, Procathepsin L (Homo sapiens, UniProt P07711); experiment: Inhibition of human cathepsin-L at 20 uM using Z-Phe-Arg-AMC as substrate by fluorometric assay relative to control
Target sequence in this assay (P07711 114-333 limits assumed): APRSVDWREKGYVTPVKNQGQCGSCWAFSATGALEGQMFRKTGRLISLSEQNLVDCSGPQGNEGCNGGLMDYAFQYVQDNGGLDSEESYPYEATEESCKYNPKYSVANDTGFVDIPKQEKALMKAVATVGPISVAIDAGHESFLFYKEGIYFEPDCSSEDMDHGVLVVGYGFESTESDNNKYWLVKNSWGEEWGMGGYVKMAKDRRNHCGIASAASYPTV

[5] = target: Rhodesain (Trypanosoma brucei rhodesiense) (UniProt Q95PM0); experiment: Inhibition of Trypanosoma brucei rhodesiense rhodesain at 20 uM using Z-Phe-Arg-AMC as substrate by fluorometric assay relative to control
[6] = Inhibition of Leishmania mexicana cathepsin L-like protease CPB2.8 using Z-Phe-Arg-AMC as substrate by fluorometric assay
Cruzipain = Cruzipain (Trypanosoma cruzi, UniProt P25779); experiment: Inhibition of Trypanosoma cruzi cruzain using Z-Phe-Arg-AMC as substrate by fluorometric assay
Leishmania major [7] = experiment: Antileishmanial activity against Leishmania major promastigotes at 20 uM; assay type: functional, organism-based
Leishmania major [8] = experiment: Antileishmanial activity against luciferase-fused Leishmania major amastigotes infected in BMDM after 24 hrs by luminescence assay; assay type: functional, organism-based
Leishmania major [9] = experiment: Antileishmanial activity against Leishmania major promastigotes; assay type: functional, organism-based
J774 = experiment: Cytotoxicity against mouse J774 cells; assay type: cell-based
Leishmania mexicana [10] = experiment: Inhibition of Leishmania mexicana cathepsin L-like protease CPB2.8 assessed as second order inactivation rate constant using Z-Phe-Arg-AMC as substrate by fluorometric assay
Falcipain 2 = target: T3, Falcipain 2 (Plasmodium falciparum, UniProt Q9N6S8); experiment: Inhibition of Plasmodium falciparum falcipain 2 using Z-Phe-Arg-AMC as substrate by fluorometric assay
T3 sequence (Q9N6S8 whole entry): T1 sequence (whole entry)

[11] = target: T1, Falcipain 2 (Plasmodium falciparum); experiment: Inhibition of Plasmodium falciparum falcipain 2 assessed as second order inactivation rate constant using Z-Phe-Arg-AMC as substrate by fluorometric assay
Rhodesain = Rhodesain (Trypanosoma brucei rhodesiense, UniProt Q95PM0); experiment: Inhibition of Trypanosoma brucei rhodesiense rhodesain using Z-Phe-Arg-AMC as substrate by fluorometric assay
[12] = target: Rhodesain (Trypanosoma brucei rhodesiense) (UniProt Q95PM0); experiment: Inhibition of Trypanosoma brucei rhodesiense rhodesain assessed as second order inactivation rate constant using Z-Phe-Arg-AMC as substrate by fluorometric assay
Procathepsin L [13] = target: T2, Procathepsin L; experiment: Inhibition of human cathepsin-L using Z-Phe-Arg-AMC as substrate by fluorometric assay
Target sequence in this assay (P07711 whole entry): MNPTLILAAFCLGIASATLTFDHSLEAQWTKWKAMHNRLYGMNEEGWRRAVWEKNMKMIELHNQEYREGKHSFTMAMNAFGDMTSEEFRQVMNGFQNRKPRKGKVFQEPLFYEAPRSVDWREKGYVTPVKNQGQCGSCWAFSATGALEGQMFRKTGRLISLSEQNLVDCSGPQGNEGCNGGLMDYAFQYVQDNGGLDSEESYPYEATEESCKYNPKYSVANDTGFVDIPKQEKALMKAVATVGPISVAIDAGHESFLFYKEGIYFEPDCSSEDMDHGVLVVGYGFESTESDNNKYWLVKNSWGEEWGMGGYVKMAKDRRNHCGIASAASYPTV

Sequence of Cruzipain (Trypanosoma cruzi) (P25779 123-467 limits assumed): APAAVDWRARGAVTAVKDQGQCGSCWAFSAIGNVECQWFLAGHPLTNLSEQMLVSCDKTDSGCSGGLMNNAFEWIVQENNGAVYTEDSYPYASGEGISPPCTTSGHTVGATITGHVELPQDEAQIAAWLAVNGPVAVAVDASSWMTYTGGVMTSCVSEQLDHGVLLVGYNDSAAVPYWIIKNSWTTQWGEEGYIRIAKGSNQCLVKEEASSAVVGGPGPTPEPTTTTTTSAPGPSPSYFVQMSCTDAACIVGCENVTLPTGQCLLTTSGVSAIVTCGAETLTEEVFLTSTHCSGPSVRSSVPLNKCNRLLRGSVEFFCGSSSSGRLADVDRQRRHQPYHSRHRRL
Sequence of Cruzipain (P25779 whole entry): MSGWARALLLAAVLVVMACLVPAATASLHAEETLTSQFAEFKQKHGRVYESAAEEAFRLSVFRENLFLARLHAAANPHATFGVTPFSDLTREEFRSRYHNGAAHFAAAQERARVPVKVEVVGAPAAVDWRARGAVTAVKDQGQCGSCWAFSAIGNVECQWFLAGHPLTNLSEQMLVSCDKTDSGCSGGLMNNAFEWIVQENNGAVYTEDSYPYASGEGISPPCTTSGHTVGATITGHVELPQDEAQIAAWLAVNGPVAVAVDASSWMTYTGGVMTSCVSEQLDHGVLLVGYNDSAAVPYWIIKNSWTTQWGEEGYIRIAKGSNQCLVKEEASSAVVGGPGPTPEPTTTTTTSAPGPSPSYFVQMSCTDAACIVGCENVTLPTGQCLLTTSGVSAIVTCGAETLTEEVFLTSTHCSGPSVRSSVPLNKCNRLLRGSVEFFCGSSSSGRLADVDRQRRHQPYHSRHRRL
Sequence of Rhodesain (Trypanosoma brucei rhodesiense) (Q95PM0 1-450): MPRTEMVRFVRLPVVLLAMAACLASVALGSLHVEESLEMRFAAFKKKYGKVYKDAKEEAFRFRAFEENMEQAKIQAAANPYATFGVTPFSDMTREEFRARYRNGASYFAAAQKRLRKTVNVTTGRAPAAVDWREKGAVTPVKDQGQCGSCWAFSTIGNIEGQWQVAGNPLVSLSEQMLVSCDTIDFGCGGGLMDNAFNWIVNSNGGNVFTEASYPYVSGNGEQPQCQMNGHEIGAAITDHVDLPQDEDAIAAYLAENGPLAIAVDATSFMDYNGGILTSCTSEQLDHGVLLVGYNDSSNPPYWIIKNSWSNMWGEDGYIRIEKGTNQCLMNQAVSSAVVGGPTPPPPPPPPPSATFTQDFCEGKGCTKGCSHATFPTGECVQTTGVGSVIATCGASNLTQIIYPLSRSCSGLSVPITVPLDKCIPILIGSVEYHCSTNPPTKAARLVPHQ
Sequence of Rhodesain (Q95PM0 whole entry): as the sequence (Q95PM0 1-450) above

inhibition (Leishmania mexicana [1]) [%]	inhibition [2] [%]	inhibition (Cathepsin B)	inhibition [3]	inhibition (Procathepsin L [4])	inhibition [5] [%]	Ki [6] [µM]	Ki (Cruzipain) [µM]	EC50 (Leishmania major [8]) [µM]	EC50 (Leishmania major [9]) [µM]	Ki (Procathepsin L [13]) [µM]	SMILES	Activity (Leishmania major [7])	Activity (J774) [µM]	K (Leishmania mexicana [10]) [M⁻¹ s⁻¹]	Ki (Falcipain 2) [µM]	K [11] [M⁻¹ s⁻¹]	Ki (Rhodesain) [µM]	K [12] [M⁻¹ s⁻¹]
< 50	< 50	inactive	< 50%	< 50%	< 50	–	–	–	–	–	CCOC(=O)C1C(C(=O)OCc2ccccc2)N1C(=O)[C@H]1CCCN1C(=O)[C@H](CC(C)C)NC(=O)OC(C)(C)C (mixture of isomers)	–	–	–	–	–	–	–
> 50	> 50	inactive	< 50%	< 50%	< 50	1.8	7.6	–	–	–	CC(C)C[C@H](NC(=O)OC(C)(C)C)C(=O)N1CCC[C@@H]1C(=O)N1C(C(=O)OCc2ccccc2)C1C(=O)OCC1CCCCC1 (mixture of isomers)	–	–	–	–	–	–	–
–	–	inactive	inactive	inactive	–	–	–	–	–	–	CC(C)C[C@@H](NC(=O)OC(C)(C)C)C(=O)N1CCC[C@@H]1C(=O)N1[C@H](C(=O)OCc2ccccc2)[C@H]1C(=O)OCc1ccccc1	inactive	–	–	–	–	–	–
–	–	–	–	–	–	–	–	2.2	34.8	–	CC(C)[C@H](NC(=O)OC(C)(C)C)C(=O)N1CCC[C@@H]1C(=O)N1[C@@H](C(=O)OCc2ccccc2)[C@@H]1C(=O)OCc1ccccc1	–	> 250	–	–	–	–	–
> 50	> 50	inactive	< 50%	< 50%	< 50	1.6	7.7	–	–	–	CC(C)C[C@H](NC(=O)OC(C)(C)C)C(=O)N1CCC[C@@H]1C(=O)N1C(C(=O)OCCc2ccccc2)C1C(=O)OCCc1ccccc1 (mixture of isomers)	–	–	–	–	–	–	–
< 50	< 50	inactive	< 50%	< 50%	< 50	–	–	–	–	–	CC(C)C[C@H](NC(=O)OC(C)(C)C)C(=O)N1CCC[C@@H]1C(=O)N1C(C(=O)O)C1C(=O)OC(C)(C)C (mixture of isomers)	–	–	–	–	–	–	–
> 50	< 50	inactive	< 50%	< 50%	< 50	0.8	–	–	–	–	CC(C)C[C@H](NC(=O)OC(C)(C)C)C(=O)N1CCC[C@@H]1C(=O)N1C(C(=O)OCc2ccccc2)C1C(=O)OCc1ccc2ccccc2c1 (mixture of isomers)	–	–	–	–	–	–	–
< 50	< 50	inactive	< 50%	< 50%	< 50	–	–	–	–	–	CCOC(=O)C1C(C(=O)O)N1C(=O)[C@H]1CCCN1C(=O)[C@H](CC(C)C)NC(=O)OC(C)(C)C (mixture of isomers)	–	–	–	–	–	–	–
–	–	inactive	–	–	–	1.7	0.9	2.2	39.6	6	CC(C)C[C@H](NC(=O)OC(C)(C)C)C(=O)N1CCC[C@@H]1C(=O)N1[C@H](C(=O)OCc2ccccc2)[C@H]1C(=O)OCc1ccccc1	–	–	–	43.9	–	–	–
> 50	< 50	inactive	< 50%	< 50%	< 50	0.77	–	–	–	–	CC(C)C[C@H](NC(=O)OC(C)(C)C)C(=O)N1CCC[C@@H]1C(=O)N1C(C(=O)OCC2CCCCC2)C1C(=O)OCC1CCCCC1 (mixture of isomers)	–	–	–	–	–	–	–

SMILES	inhibition (Leishmania mexicana [1]) [%]	inhibition [2] [%]	inhibition (Cathepsin B)	inhibition [3]	inhibition (Procathepsin L [4])	inhibition [5] [%]	Ki [6] [µM]	Ki (Cruzipain) [µM]	EC50 (Leishmania major [8]) [µM]	EC50 (Leishmania major [9]) [µM]	Ki (Procathepsin L [13]) [µM]	Activity (Leishmania major [7])	Activity (J774) [µM]	K (Leishmania mexicana [10]) [M⁻¹ s⁻¹]	Ki (Falcipain 2) [µM]	K [11] [M⁻¹ s⁻¹]	Ki (Rhodesain) [µM]	K [12] [M⁻¹ s⁻¹]
CC(C)C[C@H](NC(=O)OC(C)(C)C)C(=O)N1CCC[C@@H]1C(=O)N1C(C(=O)O)C1C(=O)OCCc1ccccc1 (mixture of isomers)	> 50	< 50	inactive	> 50%	< 50%	> 50	0.44	–	–	–	–	–	–	3180	1.26	185	0.16	2970
